Measured values published in patent US20240287003A1, “ETHACRYNIC ACID DERIVATIVES AS INHIBITORS OF MPRO PROTEASE AND SARS-COV-2 REPLICATION” (UNIVERSITE EUROMEDITERRANEENNE DE FES, priority 2021, published 2024).
Where two headings read alike, the source gives them in different places.

Columns and labels:
Mpro = Mpro (Severe acute respiratory syndrome coronavirus 2, UniProt P0DTD1); conditions: read-out: IC50 (half-maximal inhibitory concentration), Dai et al., Science 2020; cited from earlier work
SARS-COV-2 [1] = conditions: VeroE6 cells, RNA replication by qPCR; Hattori et al. 2021; read-out: EC50, blocking of SARS-COV-2 infection; cited from earlier work
SARS-COV-2 [2] = assay: microbe, parasite or virus in culture; format: cell-based; conditions: Vero cells; for reduction in infectivity titres compared with the control: 10 μM; for reduction in the infectivity titres compared with the control: 4 h pre-incubation, MOI 0.04, 48 h; for inhibition at 8 µM / inhibition at 6 µM: Severe acute respiratory syndrome coronavirus 2; for inhibition at 8 µM: read-out: inhibition percentage; for inhibition at 6 µM: read-out: inhibition of viral replication
SARS-COV-2 [3] = conditions: Rut et al., Nat. Chem. Biol. 2021; cited from earlier work
[4] = 6 μM, same experimental conditions

Compound | reduction in infectivity titres compared with the control (SARS-COV-2 [2]; same experimental conditions) | reduction in the infectivity titres compared with the control (SARS-COV-2 [2]; 16.6 μM) | inhibition at 8 µM (SARS-COV-2 [2]; same experimental conditions) | inhibition at 6 µM (SARS-COV-2 [2]; [4]) | further results
O=C[C@H](C[C@@H]1CCNC1=O)NC(=O)[C@H](Cc1cccc(F)c1)NC(=O)c1cc2ccccc2[nH]1 [11b] |  |  |  |  | IC50 (Mpro): 0.04 µM
O=C(Oc1cncc(Cl)c1)c1cccc2c1CCN2 [GRL-1720] |  |  |  |  | EC50 (SARS-COV-2 [1]): 15 ± 4 µM
C=C(CC)C(=O)c1ccc(OCC(=O)Nc2ccc3c(cnn3C)c2)c(Cl)c1Cl [P7, 2-(2,3-dichloro-4-(2-methylenebutanoyl)phenoxy)-N-(1-methyl-1H-indazol-5-yl)acetamide] | 100% | 100% | ~96.7% |  | inhibition of viral replication (SARS-COV-2 [2]; [4]): did not inhibit virus replication at all
C=C(CC)C(=O)c1ccc(OCC(=O)Nc2ccc3[nH]ncc3c2)c(Cl)c1Cl [P26, 2-(2.3-dichloro-4-(2-methylenebutanoyl)phenoxy)-N-(1H-indazol-5-yl)acetamide] | 93.09% | 97.96% | ~52.1% | ~30% | 
C=C(CC)C(=O)c1ccc(OCC(=O)Nc2cccc3cn(C)nc23)c(Cl)c1Cl [P30, 2-(2,3-dichloro-4-(2-methylenebutanoyl)phenoxy)-N-(2-methyl-2H-indazol-7-yl)acetamide] | 100% |  | ~99.7% | ~30% | reduction in the infectivity titres compared with the control (SARS-COV-2 [2]; 5.54 μM): 96.75%
Ac-Abu-dTyr-Leu-Gln-VS [Ac-QSS-VS (15)] |  |  |  |  | EC50 (SARS-COV-2 [3]): 3.7 µM
